Results reported in patent publication US11572590B2, “Methods for evaluating tumor cell spheroids using 3D microfluidic cell culture device” (Dana-Farber Cancer Institute, Inc., priority 2017, dated 2023).
Like-named read-outs stand apart in the source and are kept apart here.

Legend:
Assay in all cases: SelectScreen Kinase Profiling, single point inhibition and IC50 for off-target kinases
Assay type in all cases: biochemical
[1] = molecular target: off-target kinases (Homo sapiens, UniProt P00519, T315I); settings: ABL1 T315I, mutant y, ZLYTE, ATP Km app
[2] = molecular target: off-target kinases (Homo sapiens, UniProt P49760); settings: CLK2, ZLYTE, ATP Km app
Chain of off-target kinases (Homo sapiens, UniProt P49760) (P49760 whole entry): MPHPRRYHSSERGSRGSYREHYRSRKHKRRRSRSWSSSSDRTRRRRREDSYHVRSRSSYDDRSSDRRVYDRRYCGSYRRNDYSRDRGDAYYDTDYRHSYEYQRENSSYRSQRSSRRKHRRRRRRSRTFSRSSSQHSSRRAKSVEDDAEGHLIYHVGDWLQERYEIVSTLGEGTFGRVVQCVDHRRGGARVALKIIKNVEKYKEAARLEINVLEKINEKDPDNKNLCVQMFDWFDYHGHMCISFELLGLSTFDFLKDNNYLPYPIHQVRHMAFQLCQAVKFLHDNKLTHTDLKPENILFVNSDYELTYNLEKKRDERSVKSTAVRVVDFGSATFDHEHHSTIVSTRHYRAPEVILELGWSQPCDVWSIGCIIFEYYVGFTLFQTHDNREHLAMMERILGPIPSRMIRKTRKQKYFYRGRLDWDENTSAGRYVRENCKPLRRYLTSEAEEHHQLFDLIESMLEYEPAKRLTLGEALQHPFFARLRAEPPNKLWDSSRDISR

[3] = molecular target: T1, off-target kinases (Homo sapiens, UniProt P51817); settings: PRKX, ZLYTE, ATP Km app
T1 sequence (P51817 1-358): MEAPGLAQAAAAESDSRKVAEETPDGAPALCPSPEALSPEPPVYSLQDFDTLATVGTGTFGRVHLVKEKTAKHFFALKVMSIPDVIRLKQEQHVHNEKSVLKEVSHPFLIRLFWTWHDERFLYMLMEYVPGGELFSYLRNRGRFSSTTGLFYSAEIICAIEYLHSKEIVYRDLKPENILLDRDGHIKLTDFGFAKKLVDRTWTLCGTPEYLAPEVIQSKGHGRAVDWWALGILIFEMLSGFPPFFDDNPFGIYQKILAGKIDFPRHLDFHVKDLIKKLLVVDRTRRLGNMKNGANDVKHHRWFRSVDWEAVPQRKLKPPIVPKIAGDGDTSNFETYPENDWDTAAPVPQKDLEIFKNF

[4] = molecular target: off-target kinases (Homo sapiens, UniProt Q13153); settings: PAK1, ZLYTE, ATP Km app
Chain of off-target kinases (Homo sapiens, UniProt Q13153) (Q13153 whole entry): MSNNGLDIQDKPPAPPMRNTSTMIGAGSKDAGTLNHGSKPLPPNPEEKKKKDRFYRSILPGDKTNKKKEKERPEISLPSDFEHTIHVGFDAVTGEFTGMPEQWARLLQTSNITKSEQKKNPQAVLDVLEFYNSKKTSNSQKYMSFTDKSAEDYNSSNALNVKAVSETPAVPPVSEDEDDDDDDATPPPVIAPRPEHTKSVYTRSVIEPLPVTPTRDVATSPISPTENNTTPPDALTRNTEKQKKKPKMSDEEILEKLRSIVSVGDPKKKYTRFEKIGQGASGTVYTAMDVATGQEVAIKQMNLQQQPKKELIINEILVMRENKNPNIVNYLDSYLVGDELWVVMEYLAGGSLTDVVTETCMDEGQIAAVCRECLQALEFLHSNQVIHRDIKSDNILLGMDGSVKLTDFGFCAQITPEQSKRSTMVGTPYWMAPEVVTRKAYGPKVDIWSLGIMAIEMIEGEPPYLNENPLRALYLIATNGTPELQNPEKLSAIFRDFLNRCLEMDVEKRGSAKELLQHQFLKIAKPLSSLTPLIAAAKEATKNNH

[5] = molecular target: T2, off-target kinases (Homo sapiens, UniProt O15530); settings: ZLYTE
T2 sequence (O15530 1-556): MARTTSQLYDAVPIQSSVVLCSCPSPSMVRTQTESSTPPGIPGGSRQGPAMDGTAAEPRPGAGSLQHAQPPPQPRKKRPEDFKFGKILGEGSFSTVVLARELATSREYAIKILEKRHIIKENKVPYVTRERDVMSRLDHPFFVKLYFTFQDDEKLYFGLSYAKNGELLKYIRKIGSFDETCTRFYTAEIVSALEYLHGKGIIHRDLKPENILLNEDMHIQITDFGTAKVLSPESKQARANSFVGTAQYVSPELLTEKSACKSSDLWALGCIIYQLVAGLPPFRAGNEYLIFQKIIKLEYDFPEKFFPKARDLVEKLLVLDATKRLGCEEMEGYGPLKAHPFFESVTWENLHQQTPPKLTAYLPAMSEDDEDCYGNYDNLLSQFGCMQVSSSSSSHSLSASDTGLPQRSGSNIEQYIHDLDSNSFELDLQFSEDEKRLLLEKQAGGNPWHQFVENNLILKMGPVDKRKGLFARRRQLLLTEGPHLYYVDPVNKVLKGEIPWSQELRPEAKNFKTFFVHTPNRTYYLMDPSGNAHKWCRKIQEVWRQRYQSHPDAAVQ

[6] = molecular target: off-target kinases (Homo sapiens, UniProt Q9BUB5); settings: MKNK1 (MNK1), ATP Km app, ZLYTE
Chain of off-target kinases (Homo sapiens, UniProt Q9BUB5) (Q9BUB5 whole entry): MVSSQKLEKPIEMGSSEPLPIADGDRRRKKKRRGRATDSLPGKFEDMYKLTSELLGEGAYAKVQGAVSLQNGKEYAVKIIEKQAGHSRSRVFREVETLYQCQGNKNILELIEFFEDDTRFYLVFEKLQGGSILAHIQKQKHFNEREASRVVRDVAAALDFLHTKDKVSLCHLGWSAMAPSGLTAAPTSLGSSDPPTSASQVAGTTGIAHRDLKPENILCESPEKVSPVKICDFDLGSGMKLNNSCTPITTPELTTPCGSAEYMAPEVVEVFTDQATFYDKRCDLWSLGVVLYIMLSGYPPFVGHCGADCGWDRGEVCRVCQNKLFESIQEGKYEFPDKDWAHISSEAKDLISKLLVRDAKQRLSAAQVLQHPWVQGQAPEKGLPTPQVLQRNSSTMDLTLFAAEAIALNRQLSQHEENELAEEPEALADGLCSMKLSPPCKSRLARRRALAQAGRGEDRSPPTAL

Question: Which inhibition ([1]; read-out: % Inhibition 1) does the source give for `N#Cc1cc(-c2ncnc(Nc3ccc(N4CCN(C5COC5)CC4)cc3)n2)ccc1OC1CCOCC1` [Compound 1, 5-(4-((4-(4-(oxetan-3-yl)piperazin-1-yl)phenyl)amino)-1,3,5-triazin-2-yl)-2-((tetrahydro-2H-pyran-4-yl)oxy)benzonitrile] here?
Answer: 30%

Question: What about the inhibition ([1]; read-out: % Inhibition 2) of the same compound?
Answer: 29%

Question: What about the inhibition ([1]; read-out: % Inhibition Avg) of the same compound?
Answer: 29%

Question: What about the inhibition ([2]; read-out: % Inhibition 1) of the same compound?
Answer: 5%

Question: And the inhibition ([2]; read-out: % Inhibition 2)?
Answer: 9%

Question: And the inhibition ([2]; read-out: % Inhibition Avg)?
Answer: 7%

Question: What about the inhibition ([3]; read-out: % Inhibition 1) of the same compound?
Answer: 22%

Question: What about the inhibition ([3]; read-out: % Inhibition 2) of the same compound?
Answer: 30%

Question: What about the inhibition ([3]; read-out: % Inhibition Avg) of the same compound?
Answer: 26%

Question: And the inhibition ([4]; read-out: % Inhibition 1)?
Answer: 8%

Question: And the inhibition ([4]; read-out: % Inhibition 2)?
Answer: 8%

Question: What about the inhibition ([4]; read-out: % Inhibition Avg) of the same compound?
Answer: 8%

Question: What about the inhibition ([5]; PDK1, ATP 100, read-out: % Inhibition 1) of the same compound?
Answer: 14%

Question: And the inhibition ([5]; PDK1, ATP 100, read-out: % Inhibition 2)?
Answer: 16%

Question: And the inhibition ([5]; PDK1, ATP 100, read-out: % Inhibition Avg)?
Answer: 15%

Question: What about the inhibition ([5]; PDK1 Direct, ATP Km app, read-out: % Inhibition 1) of the same compound?
Answer: 85%

Question: And the inhibition ([5]; PDK1 Direct, ATP Km app, read-out: % Inhibition 2)?
Answer: 74%

Question: And the inhibition ([5]; PDK1 Direct, ATP Km app, read-out: % Inhibition Avg)?
Answer: 79%

Question: And the inhibition ([6]; read-out: % Inhibition 1)?
Answer: 99%

Question: What about the inhibition ([6]; read-out: % Inhibition 2) of the same compound?
Answer: 100%

Question: And the inhibition ([6]; read-out: % Inhibition Avg)?
Answer: 100%
